The text below walks through data of US20240109918A1, “HETEROCYCLIC COMPOUNDS AND USES THEREOF” (Kumquat Biosciences Inc., priority 2022, published 2024).

The target in experiment [1] is T1, KRASG12D (Homo sapiens, UniProt P01116, G12D).
T1 construct: made in house; host or cells: E. coli BL21 (DE3)
Put plainly: Bio-Biochem-PPI-HTRF Ras-SOS1 interaction assay (KRAS G12D). It counts as biochemical. To be noted: 5 nM. An outline of the steps:
(§1)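 Inhibition of His-hSOS1 binding to GST-tagged wild-type or G12D K-Ras is read as HTRF ratio (665/620 nm) following incubation of about 10 minutes or longer, and IC50 values are fitted from duplicate six-point titrations.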
For orientation: Time-resolved FRET reads energy transfer from a long-lived donor to a nearby acceptor.

Experiment [2] deals with T2, KRASwt (Homo sapiens, UniProt P01116).
T2 construct: made in house; host or cells: E. coli BL21 (DE3)
T2 sequence (P01116 1-188 isoform P01116-2): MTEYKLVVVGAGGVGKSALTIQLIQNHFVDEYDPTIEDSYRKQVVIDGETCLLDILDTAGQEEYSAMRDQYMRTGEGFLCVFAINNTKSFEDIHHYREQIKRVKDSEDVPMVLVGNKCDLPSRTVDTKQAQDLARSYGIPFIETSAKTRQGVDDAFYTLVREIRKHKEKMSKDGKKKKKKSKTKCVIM
The experiment can be described thus: Bio-Biochem-PPI-HTRF Ras-SOS1 interaction assay (KRAS wt). In kind it is biochemical. The following applies: 5 nM. Summed up: as §1

T1 sequence (P01116 1-188 isoform P01116-2 G12D): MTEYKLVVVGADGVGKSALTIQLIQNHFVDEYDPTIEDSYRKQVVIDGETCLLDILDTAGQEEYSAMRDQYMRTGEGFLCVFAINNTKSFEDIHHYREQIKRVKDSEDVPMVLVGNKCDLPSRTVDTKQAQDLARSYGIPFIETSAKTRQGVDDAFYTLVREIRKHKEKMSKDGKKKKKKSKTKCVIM

For `CC1(C)CN(c2nc(OC[C@@]34CCCN3C[C@H](F)C4)nc3c(F)c(-c4ccc(F)c5sc(N)nc45)c(Cl)cc23)CC2(CN(C#N)C2)O1` [compound 180, 8-(7-(2-amino-7-fluorobenzo[d]thiazol-4-yl)-6-chloro-8-fluoro-2-(((2R,7aS)-2-fluorotetrahydro-1H-pyrrolizin-7a(5H)-yl)methoxy)quinazolin-4-yl)-6,6-dimethyl-5-oxa-2,8-diazaspiro[3.5] nonane-2-carbonitrile], the 50% inhibitory concentration (IC50) in experiment [1] is not below 5 µM; in experiment [2], less than 5 µM.
Consider `CN(C)C/C=C/C(=O)N1CC2(CCCN(c3nc(OC[C@@]45CCCN4C[C@H](F)C5)nc4c(F)c(-c5ccc(F)c6sc(N)nc56)c(Cl)cc34)C2)C1` [compound 181, (E)-1-(6-(7-(2-amino-7-fluorobenzo[d]thiazol-4-yl)-6-chloro-8-fluoro-2-(((2R,7aS)-2-fluorotetrahydro-1H-pyrrolizin-7a(5H)-yl)methoxy)quinazolin-4-yl)-2,6-diazaspiro[3.5]nonan-2-yl)-4-(dimethylamino)but-2-en-1-one], for which the IC50 in experiment [1] and in experiment [2] was less than 5 µM each time.
As for `N#Cc1c(N)sc2c(F)ccc(-c3c(Cl)cc4c(N5CCC6(CN(C#N)C6)C5)nc(OC[C@@]56CCCN5C[C@H](F)C6)nc4c3F)c12` [compound 182, 6-(7-(2-amino-3-cyano-7-fluorobenzo[b]thiophen-4-yl)-6-chloro-8-fluoro-2-(((2R,7aS)-2-fluorotetrahydro-1H-pyrrolizin-7a(5H)-yl)methoxy)quinazolin-4-yl)-2,6-diazaspiro[3.4] octane-2-carbonitrile], the IC50 in experiment [1] and in experiment [2] was less than 5 µM each time.
Regarding `CN(C)C/C=C/C(=O)N1CC2(CCN(c3nc(OC[C@@]45CCCN4C[C@H](F)C5)nc4c(F)c(-c5ccc(F)c6sc(N)c(C#N)c56)c(Cl)cc34)C2)C1` [compound 183, 2-amino-4-(6-chloro-4-(2-((E)-4-(dimethylamino)but-2-enoyl)-2,6-diazaspiro[3.4]octan-6-yl)-8-fluoro-2-(((2R,7aS)-2-fluorotetrahydro-1H-pyrrolizin-7a(5H)-yl)methoxy)quinazolin-7-yl)-7-fluorobenzo[b]thiophene-3-carbonitrile], the IC50 in experiment [1] and in experiment [2] was less than 5 µM each time.
Consider `N#Cc1c(N)sc2c(F)ccc(-c3c(Cl)cc4c(N5CCCC6(CN(C(=O)C(F)Cl)C6)C5)nc(OC[C@@]56CCCN5C[C@H](F)C6)nc4c3F)c12` (stereo partly drawn) [compound 184, 2-amino-4-(6-chloro-4-(2-(2-chloro-2-fluoroacetyl)-2,6-diazaspiro[3.5]nonan-6-yl)-8-fluoro-2-(((2R,7aS)-2-fluorotetrahydro-1H-pyrrolizin-7a(5H)-yl)methoxy)quinazolin-7-yl)-7-fluorobenzo[b]thiophene-3-carbonitrile], for which the IC50 in experiment [1] and in experiment [2] was less than 5 µM throughout.
`CN(C)C/C=C/C(=O)N1CC2(C1)CN(c1nc(OC[C@@]34CCCN3C[C@H](F)C4)nc3c(F)c(-c4ccc(F)c5sc(N)c(C#N)c45)c(Cl)cc13)CCO2` [compound 185, 2-amino-4-(6-chloro-4-(2-((E)-4-(dimethylamino)but-2-enoyl)-5-oxa-2,8-diazaspiro[3.5]nonan-8-yl)-8-fluoro-2-(((2R,7aS)-2-fluorotetrahydro-1H-pyrrolizin-7a(5H)-yl)methoxy)quinazolin-7-yl)-7-fluorobenzo[b]thiophene-3-carbonitrile]: the IC50 in experiment [1] and in experiment [2] was less than 5 µM in each case.
On to `N#CN1CC2(C1)CN(c1nc(OC[C@@]34CCCN3C[C@H](F)C4)nc3c(F)c(-c4ccc(F)c5sc(N)nc45)c(Cl)cc13)CCO2` [compound 187, 8-(7-(2-amino-7-fluorobenzo[d]thiazol-4-yl)-6-chloro-8-fluoro-2-(((2R,7aS)-2-fluorotetrahydro-1H-pyrrolizin-7a(5H)-yl)methoxy)quinazolin-4-yl)-5-oxa-2,8-diazaspiro[3.5]nonane-2-carbonitrile], for which the IC50 in experiment [1] and in experiment [2] was less than 5 µM in each case.
On to `CN(C)C/C=C/C(=O)N1CC2(CCCCN(c3nc(OC[C@@]45CCCN4C[C@H](F)C5)nc4c(F)c(-c5ccc(F)c6sc(N)c(C#N)c56)c(Cl)cc34)C2)C1` [compound 188, 2-amino-4-(6-chloro-4-(2-((E)-4-(dimethylamino)but-2-enoyl)-2,6-diazaspiro[3.6]decan-6-yl)-8-fluoro-2-(((2R,7aS)-2-fluorotetrahydro-1H-pyrrolizin-7a(5H)-yl)methoxy)quinazolin-7-yl)-7-fluorobenzo[b]thiophene-3-carbonitrile], for which the IC50 in experiment [1] and in experiment [2] was less than 5 µM throughout.
As for `CN(C)C/C=C/C(=O)N1CC2(CCCN(c3nc(OC[C@@]45CCCN4C[C@H](F)C5)nc4c(F)c(-c5ccc(F)c6sc(N)c(C#N)c56)c(Cl)cc34)C2)C1` [compound 189, 2-amino-4-(6-chloro-4-(2-((E)-4-(dimethylamino)but-2-enoyl)-2,6-diazaspiro[3.5]nonan-6-yl)-8-fluoro-2-(((2R,7aS)-2-fluorotetrahydro-1H-pyrrolizin-7a(5H)-yl)methoxy)quinazolin-7-yl)-7-fluorobenzo[b]thiophene-3-carbonitrile], the IC50 in experiment [1] and in experiment [2] was less than 5 µM throughout.
Consider `N#Cc1c(N)sc2c(F)ccc(-c3c(Cl)cc4c(N5CCOC6(CN(C#N)C6)C5)nc(OC[C@@]56CCCN5C[C@H](F)C6)nc4c3F)c12` [compound 190, 8-(7-(2-amino-3-cyano-7-fluorobenzo[b]thiophen-4-yl)-6-chloro-8-fluoro-2-(((2R,7aS)-2-fluorotetrahydro-1H-pyrrolizin-7a(5H)-yl)methoxy)quinazolin-4-yl)-5-oxa-2,8-diazaspiro[3.5]nonane-2-carbonitrile], for which the IC50 in experiment [1] and in experiment [2] was less than 5 µM in each case.
Take `Nc1nc2c(-c3c(Cl)cc4c(N5CCC6(CC5)CN(S(=O)(=O)F)C6)nc(OC[C@@]56CCCN5C[C@H](F)C6)nc4c3F)ccc(F)c2s1` [compound 191, 7-(7-(2-amino-7-fluorobenzo[d]thiazol-4-yl)-6-chloro-8-fluoro-2-(((2R,7aS)-2-fluorotetrahydro-1H-pyrrolizin-7a(5H)-yl)methoxy)quinazolin-4-yl)-2,7-diazaspiro[3.5]nonane-2-sulfonyl fluoride]: the IC50 in experiment [1] is not below 5 µM; in experiment [2], less than 5 µM.
Consider `N#Cc1c(N)sc2c(F)ccc(-c3c(Cl)cc4c(N5CCCCC6(CN(C(=O)[C@H]7[C@@H]8COC[C@@H]87)C6)C5)nc(OCC56CCCN5C[C@H](F)C6)nc4c3F)c12` (stereo partly drawn) [compound 192, 4-(4-(2-((1R,5S,6r)-3-oxabicyclo[3.1.0]hexane-6-carbonyl)-2,6-diazaspiro[3.6]decan-6-yl)-6-chloro-8-fluoro-2-(((2R,7aS)-2-fluorotetrahydro-1H-pyrrolizin-7a(5H)-yl)methoxy)quinazolin-7-yl)-2-amino-7-fluorobenzo [b]thiophene-3-carbonitrile], for which the IC50 in experiment [1] and in experiment [2] was less than 5 µM each time.
On to `N#Cc1c(N)sc2c(F)ccc(-c3c(Cl)cc4c(N5CCCCC6(CN(C(=O)[C@H]7C[C@H]7F)C6)C5)nc(OC[C@@]56CCCN5C[C@H](F)C6)nc4c3F)c12` [compound 193, 2-amino-4-(6-chloro-8-fluoro-4-(2-((1R,2R)-2-fluorocyclopropane-1-carbonyl)-2,6-diazaspiro[3.6]decan-6-yl)-2-(((2R,7aS)-2-fluorotetrahydro-1H-pyrrolizin-7a(5H)-yl)methoxy)quinazolin-7-yl)-7-fluorobenzo[b]thiophene-3-carbonitrile], for which the IC50 in experiment [1] and in experiment [2] was less than 5 µM in each case.
Consider `N#CCC(=O)N1CC2(CCCCN(c3nc(OC[C@@]45CCCN4C[C@H](F)C5)nc4c(F)c(-c5ccc(F)c6sc(N)c(C#N)c56)c(Cl)cc34)C2)C1` [compound 194, 2-amino-4-(6-chloro-4-(2-(2-cyanoacetyl)-2,6-diazaspiro[3.6]decan-6-yl)-8-fluoro-2-(((2R,7aS)-2-fluorotetrahydro-1H-pyrrolizin-7a(5H)-yl)methoxy)quinazolin-7-yl)-7-fluorobenzo[b]thiophene-3-carbonitrile], for which the IC50 in experiment [1] and in experiment [2] was less than 5 µM each time.
For `N#Cc1c(N)sc2c(F)ccc(-c3c(Cl)cc4c(N5CCCCC6(C5)CN(S(=O)(=O)C5CC5)C6)nc(OC[C@@]56CCCN5C[C@H](F)C6)nc4c3F)c12` [compound 195, 2-amino-4-(6-chloro-4-(2-(cyclopropylsulfonyl)-2,6-diazaspiro[3.6]decan-6-yl)-8-fluoro-2-(((2R,7aS)-2-fluorotetrahydro-1H-pyrrolizin-7a(5H)-yl)methoxy)quinazolin-7-yl)-7-fluorobenzo[b]thiophene-3-carbonitrile], the IC50 in experiment [1] and in experiment [2] was less than 5 µM in each case.
In the case of `N#Cc1c(N)sc2c(F)ccc(-c3c(Cl)cc4c(N5CCCCC6(CN(C(=O)N7CC(C(F)F)C7)C6)C5)nc(OC[C@@]56CCCN5C[C@H](F)C6)nc4c3F)c12` [compound 196, 2-amino-4-(6-chloro-4-(2-(3-(difluoromethyl)azetidine-1-carbonyl)-2,6-diazaspiro[3.6]decan-6-yl)-8-fluoro-2-(((2R,7aS)-2-fluorotetrahydro-1H-pyrrolizin-7a(5H)-yl)methoxy)quinazolin-7-yl)-7-fluorobenzo[b]thiophene-3-carbonitrile], the IC50 in experiment [1] and in experiment [2] was less than 5 µM each time.
As for `CC(C)C(=O)N1CC2(CCCCN(c3nc(OC[C@@]45CCCN4C[C@H](F)C5)nc4c(F)c(-c5ccc(F)c6sc(N)c(C#N)c56)c(Cl)cc34)C2)C1` [compound 197, 2-amino-4-(6-chloro-8-fluoro-2-(((2R,7aS)-2-fluorotetrahydro-1H-pyrrolizin-7a(5H)-yl)methoxy)-4-(2-isobutyryl-2,6-diazaspiro[3.6]decan-6-yl)quinazolin-7-yl)-7-fluorobenzo[b]thiophene-3-carbonitrile], the IC50 in experiment [1] and in experiment [2] was less than 5 µM throughout.

One may read the IC50 as the concentration at which inhibition is half-maximal. A low value points to greater potency.
